Experimental data as given in US11160813B2, “Combination therapy for nonalcoholic steatohepatitis (NASH) and liver fibrosis” (Modunex Bio Corp., priority 2016, dated 2021).
Entries after “also recorded” stand apart in the source; their conditions may differ. Like-named read-outs stand apart in the source and are kept apart here.

What was measured:
[1] = recent studies; cited from earlier work
mouse model of NASH = mouse model of NASH and fibrosis induced by streptozocin and high fat diet; type: in vivo, C59BL/6J mice; conditions: for NAS score: alone or in combination; for liver enzyme AST / liver enzyme ALP: OCA
Description: We have utilized a well validated mice model in which the NASH and fibrosis was induced by sequential induction of diabetes mellitus and a high fat diet (14). On day 2, C59BL/6J mice were injected with streptozocin, then treated with high fat diet from week 4 until week 9. The intervention treatment started from week 5 until week 9. On week 9, these mice were euthanized.
NAS scores were determined according to the consensus by Nonalcoholic Steatohepatitis Clinical Research Network (13)
Fibrosis scores were determined according to the consensus by Nonalcoholic Steatohepatitis Clinical Research Network (13).

[2] = cited from earlier work
[3] = cited from earlier work; for pruritus: placebo 38%
[4] = cited from earlier work; remark: listed apart in the source
[5] = cited from earlier work; remark: listed apart in the source
[6] = HIV patients with HCV infection; cited from earlier work
CCR5 = conditions: animal model; cited from earlier work
[7] = FIG. 7B, MK-0812, alone or together

CCCCOCCOc1ccc(-c2ccc3c(c2)/C=C(/C(=O)Nc2ccc([S@@+]([O-])Cc4cncn4CCC)cc2)CCCN3CC(C)C)cc1 [cenicriviroc]
effect on NASH [1]: marginal effect on NASH
effect on fibrosis [1]: relatively more significant effect on fibrosis

CO[C@@H]1COCC[C@@H]1N[C@@H]1CC[C@@](C(=O)N2CCc3ncc(C(F)(F)F)cc3C2)(C(C)C)C1 [MK-0812]
NAS score (mouse model of NASH; FIG. 1B, OCA and MK-0812 (10 mg twice daily)): modest reduction of NAS scores; also recorded: little effect
fibrosis evidenced by staining of collagen (liver histology) (mouse model of NASH; FIG. 2B, OCA and MK-0812): reduction of fibrosis
results in the NASH model when a CCR2 antagonist was used instead of MVC (mouse model of NASH; FIG. 3B to 7B): Comparable results
fibrosis score (mouse model of NASH; FIG. 3B, OCA and MK-0812, combination with half dose OCA and MK-0812 10 mg twice daily): reduction of fibrosis score
liver inflammation (mouse model of NASH; FIG. 4B, OCA and MK-0812): reduction of liver inflammation
hepatocyte ballooning score (mouse model of NASH; FIG. 5B, OCA and MK-0812): reduction of hepatocyte ballooning score
steatosis (mouse model of NASH; FIG. 6B, full dose OCA, MK-0812 alone): no apparent effect on steatosis
liver enzyme AST (mouse model of NASH; [7]): not observed

CC[C@H]1[C@@H](O)[C@@H]2[C@H](CC[C@]3(C)[C@@H]([C@H](C)CCC(=O)O)CC[C@@H]23)[C@@]2(C)CC[C@@H](O)C[C@@H]12 [OCA, 6 α-ethyl-chemodeoxycholic acid]
bile duct histology ([2]; 26-week oral, rats): bile duct hyperplasia
clinical chemistry parameters ([2]; 26-week oral, rats): increases in ALT, AST and ALP
liver weight ([2]; 26-week oral, rats): increased liver weight
safety margin relative to recommended human dose ([2]; rat, in vivo): 2.3 fold
pruritus ([3]; 10 mg once daily): 56%
HDL ([3]; dose related): dose related reduction in HDL; also recorded: reduction of HDL
severe pruritus ([3]; patients receiving OCA): 19-23%
frequency of pruritus ([3]; reported frequency): up to 80%
pruritus ([3]; titration regimen): 70%
ALT levels ([4]; 9-month oral, dogs): elevated ALT levels
clinical signs of toxicity that could be associated with liver function ([4]; dog, in vivo, po): yellow discoloration of skin, mucous membrane, and eyes
exposure-adjusted incidence for all serious and otherwise clinically significant liver-related adverse reactions and isolated elevations in liver biochemical test ([5]; 10 mg group, placebo 2.4): 5.2 per 100 patient exposure years (PEY)
exposure-adjusted incidence for all serious and otherwise clinically significant liver-related adverse reactions and isolated elevations in liver biochemical test ([5]; 25 mg group): 19.8%
exposure-adjusted incidence for all serious and otherwise clinically significant liver-related adverse reactions and isolated elevations in liver biochemical test ([5]; 50 mg group): 54.5%
liver enzyme AST (mouse model of NASH; FIG. 7A, MVC, alone or together): elevation in AST and ALP liver enzymes; also recorded: elevation of the liver enzyme AST
liver enzyme AST (mouse model of NASH; [7]): elevation of the liver enzyme AST
liver enzyme ALP (mouse model of NASH; FIG. 8A, MVC, alone or together): elevation in AST and ALP liver enzymes; also recorded: elevation of the liver enzyme ALP
liver enzyme ALP (mouse model of NASH; FIG. 8B, MK-0812): elevation of the liver enzyme ALP

maraviroc [MVC]
liver fibrosis [6]: Reducing liver fibrosis has been observed
NAS score and fibrosis (CCR5): effective in an animal model for reducing NAS score and fibrosis
NAS score (mouse model of NASH; FIG. 1A, maraviroc 45 mg/kg once daily orally, OCA 30 mg/kg once daily, 4 wks): modest reduction of NAS scores
NAS score (mouse model of NASH; FIG. 1A, maraviroc 45 mg/kg once daily orally, OCA 30 mg/kg once daily, 4 wks, listed as maravoric): limited effect on the NAS score
fibrosis evidenced by staining of collagen (liver histology) (mouse model of NASH; FIG. 2A, maraviroc 45 mg/kg, OCA 30 mg/kg once daily, 4 wks): reduction of fibrosis
fibrosis evidenced by staining of collagen (liver histology) (mouse model of NASH; FIG. 2A, maraviroc 45 mg/kg, OCA 30 mg/kg once daily, 4 wks, listed as maraviroc): effective in reducing fibrosis; also recorded: more effective than OCA in reducing fibrosis
fibrosis score (mouse model of NASH; FIG. 3A, maraviroc 45 mg/kg, OCA 30 mg/kg once daily, 4 wks): reduction of fibrosis score
liver inflammation (mouse model of NASH; FIG. 4A, maraviroc 45 mg/kg, OCA 30 mg/kg once daily, 4 wks): reduction of liver inflammation
hepatocyte ballooning score (mouse model of NASH; FIG. 5A, maraviroc 45 mg/kg, OCA 30 mg/kg once daily, 4 wks): reduction of the hepatocyte ballooning score
steatosis (mouse model of NASH; FIG. 6A, maraviroc 45 mg/kg, OCA 30 mg/kg once daily, 4 wks): marginal effect on steatosis
